Experimental data from patent US11541059B2, “Heterocyclic compounds and uses thereof” (Infinity Pharmaceuticals, Inc., priority 2014, dated 2023).

Legend:
[1] = system: 4T1 breast cancer; experiment: Subcutaneous 4T1 breast cancer model; type: in vivo; conditions: co-administration with docetaxel, paclitaxel, or 5-FU
[2] = system: spleen T cell proliferation; experiment: Ex vivo T-cell proliferation assay with tumor-derived cells; type: cell-based, mouse
[3] = system: LPS induced neutrophil influx in BALF; experiment: LPS-induced neutrophilia, oral administration; type: in vivo; conditions: rat, p.o., 4 hours post-LPS challenge
From the text: This study also includes assessment of the exposure to the compounds in plasma and lung tissues.

[4] = Pharmacokinetics of Compound BB, single and repeat oral dose; type: in vivo, mouse; conditions: female CB6F1 mice, 2, 7.5, 15 mg/kg PO
Description: Animals were weighed daily prior to dosing. […] On subsequent dosing days, the animals' condition was noted prior to dosing; the animals were observed within 4 hours of dosing, and at the end of the day.
Samples were collected at pre-dose 0.25, 0.5, 1, 2, 4, 6 and 24 h following the first dose on day 1 and pre-dose (trough), 0.25, 0.5, 1, 2, 4, 6 and 24 h following the final dose on day 3. Animals received a single oral dose daily for 3 consecutive days. Blood was collected by retro-orbital bleeding for all time points on day 1. All other blood sampling was collected by a cardiac puncture. Blood was collected into K2EDTA tubes and placed on wet ice. Within 15 min of collection, the sample was centrifuged at 10,000 rpm at 4° C. for 10 min in a bench top centrifuge and the plasma transferred to a new microcentrifuge tube.

[5] = system: LLC tumor; experiment: Lewis Lung Carcinoma (LLC tumor brei) model; type: in vivo, mouse; conditions: FIG. 25A, 25B
Description: Compound BB was tested in the Lewis Lung Carcinoma model, which is known in the art and briefly described hereinabove.
LLC tumor brei model was prepared and injected subcutaneously into a mouse in the hind flank region. The tumor brei was prepared as follows. LL2-Luc tumor cells were grown in culture in DMEM+10% FBS. Cells were implanted @ 1×10^6 cells/100 uL SC in the flank of C57 Albino mice (male) When tumors reached 1000 mm3, tumors were harvested. Only the white, living tissue was harvested. Any material containing visable blood or necrotic area was isolated away from the tumor tissue. Tumor tissue was placed in a Dounce tissue homoginized with 5 mLs of warm DMEM (no FBS). About 1-2 grams of tumor tissue was collected, homogenized, pooled into 50 mL falcon tube, and cells were counted. Cells were spinned @ […], and FBS was pooled off Cells were resuspended to equal 1×10^7 cells/mL with sterile PBS. 100 uL of cells/mouse SC at the hind flank region were implanted. This process was repeated one more time before conducting brei tumor efficacy study.

[6] = system: 4T1 tumors; experiment: 4T1 breast cancer model; type: in vivo, mouse
Description: Plasma is collected for pharmokinetic (PK) analysis.
Briefly, in this study, treatment was initiated when tumors reached approximately 100 mm^3. […] 1. […] Vehicle+anti-PD-L1 (200 ug); 4.
Luciferin measurements were taken twice a week.

[7] = system: monocytic iMCs in CT26 subcutaneous tumors; experiment: Flow cytometry of tumor-associated myeloid cells, CT26; type: in vivo, mouse; conditions: FIG. 38B
Description: Flow cytometry was performed to obtain a more extensive cellular subset analysis. In particular, the study examined T cell vs. Myeloid cells, Myeloid cell subsets, Regulatory vs. effector T cells, and Tumor markers vs. WBC (e.g., PD-L1 expression on tumor).
Different populations of tumor-associated myeloid cells can be identified by flow cytometry, e.g., monocytic immature myeloid cells (iMC),Granulocytic iMCs/Neutrophils, Tumor Associated Macrophages (TAMs), and Granulocytic MDSCs. The different populations, and panels for detecting MDSCs, are described in Cancer Discovery 2011; 1:54-67. Tumors may vary in their myeloid cell composition.

[8] = system: immune gene expression in KPC tumors; experiment: RNA expression profiling (TLDA) of KPC pancreatic tumors; type: in vivo, mouse; conditions: 3 mg/kg, with or without PDL-1 antibody
Description: RNA expression profiling was performed for immuno-phenotyping with a Tagman low density array (TLDA).
For mouse tumors, snap frozen samples were powdered with a Genogrinder at liquid nitrogen temperatures and RNA was isolated with Trizol. Next, the sample was cleaned-up using Qiashredder, and then using a RNeasy kit.
CT values were used for analysis. For each sample Si and each gene, the following values were calculated: dCT(Si,gene)=CT(Si,gene)−CT(Si,ACTB) ddCT(Si,gene)=dCT(Si,gene)−median(dCT(vehicle treated samples,gene)) RQ(Si,gene)=2^(−ddCT(Si,gene))
This produced a matrix of RQ values: 48 genes (rows)×39 samples (cols).
The analysis used R package Non-negative Matrix Factorization (NMF) with rank=3 and the “lee” algorithm.

[9] = Oral half-life; type: in vivo; conditions: plasma
From the text: Compound BB's oral exposure is high in rat, dog and monkey. Good oral bioavailability and low clearance in rodent and non-rodent animal species results in high oral exposure.

[10] = system: LLC tumor; experiment: LLC tumor brei model with or without cyclophosphamide; type: in vivo, mouse; conditions: BB 15 mg/kg QD PO; cyclophosphamide 50 mg/kg EOD IP, FIG. 48
Description: In this experiment, treatment began when tumors reached approx. 150 mm^3—around day 12. Caliper and xenogen images were monitored. Treatment groups n=13-15/group. […] Samples for FACs analysis were collected on day 23 post implant. Using FACS, cells were assayed for the level of CD11b and Gr-1.

[11] = system: pAKT S473 in T cells and monocytes; experiment: Ex vivo whole blood CXCL12 stimulation of phospho-AKT, LLC-bearing mice; type: in vivo, mouse; conditions: 12 days QD PO, 2 h post dose
Description: C57 BL/6 Albino mice were implanted with 1×10^6 cells in a SC injection in the hind flank. The cell implant material was generated from brei that was passaged from mouse to mouse. Treatment started when tumors were between 160-180 mm^3. Mice were dosed for 12 days, QD, PO with vehicle, 15, 7.5 or 3 mg/kg. On day 12 mice were dosed and terminal blood was collected 2 h post dose by cardiac stick collection. Blood was placed in EDTA K2 collection tube and stored at room temp for PD analysis.
Blood from each animal was aliquotted into 2 plates and warmed to 37° C. degrees. PBS was added to one plate as an unstimulated control. Murine CXCL12/SDF-1 was added to the second plate to a final concentration of 800 ng/mL and plate was returned to the 37° C. degree block. After 2 minutes of incubation, blood was lysed and fixed using paraformaldehyde. Samples were washed and frozen until flow cytometric analysis. T cells were gated using an antibody to CD3 and monocytes were gated as LY6G^− LY6C^high. Intracellular pAKT S473 was measured and percent positive was used for graphing.

[12] = system: collagen induced arthritis; experiment: Rat collagen induced arthritis (CIA) model; conditions: FIG. 1

SMILES: C[C@H](NC(=O)c1c(N)nn2cccnc12)c1cc2cccc(C#Cc3cnn(C)c3)c2c(=O)n1-c1ccccc1 [Compound BB]
- tumor growth [1]: further reduction in tumor growth
- immune suppressive environment [2]: reduces
- Neutrophil in bronchoalveolar lavage fluid (BALF) [3]: reduced neutrophil
- Stability in serum (24-hour unbound plasma concentration time course) [4]: good stability in serum
- Tumor growth, Lewis Lung Carcinoma model [5]: demonstrated single agent activity
- Tumor growth, orthotopic 4T1 breast cancer model ([6]; 7.5 mg/kg PO QD 3 weeks, FIG. 33A): reduced tumor growth
- Tumor growth, subcutaneous 4T1 breast cancer model ([6]; 15 mg/kg PO QD 2 weeks, FIG. 36): demonstrated single agent activity
- Anti-tumor effect maintained after discontinuation of treatment ([6]; subcutaneous 4T1, FIG. 34): at least 6 days
- Monocytic iMCs [7]: monocytic iMCs were decreased
- M2 macrophage markers VEGF and ARG-1 (RNA) [8]: trended towards reduction
- half-life ([9]; dog, 5 mg/kg): ~7.1 h
- half-life ([9]; monkey, 5 mg/kg): ~10.2 h
- half-life ([9]; rat, 7.5 mg/kg): ~3.3 h
- Tumor growth, LLC tumor brei model [10]: reduced tumor growth by about the same amount
- Ex vivo whole blood CXCL12 stimulation of phospho-AKT in T cells ([11]; FIG. 58): inhibits the ex vivo whole blood stimulation of phosphor-AKT in T cells
- Ex vivo whole blood CXCL12 stimulation of phospho-AKT in monocytes ([11]; FIG. 59): inhibits the ex vivo whole blood stimulation of phosphor-AKT in monocytes
- Mean ankle diameter, day 9 to day 17 [12]: has therapeutic effects
